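48-hour exposure; five concentrations; linearly interpolated endpoints. GI50 is the concentration that inhibits growth by half.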 Activity calls are given as the source filed them. Cut-off read from the data, not from the text of the source: active = GI50 up to about 1.1 µM and inactive = higher.
Key:
Assay in all cases: DTP human tumour cell line panel, 48 h
A498 = test system: A498
CAKI-1 = test system: CAKI-1
DU-145 = test system: DU-145
EKVX = test system: EKVX
HCT-15 = test system: HCT-15
HOP-92 = test system: HOP-92
Hs-578T = test system: Hs-578T
KM12 = test system: KM12
LOX IMVI = test system: LOX IMVI
M14 = test system: M14
NCI-H23 = test system: NCI-H23
NCI-H460 = test system: NCI-H460
OVCAR-8 = test system: OVCAR-8
RPMI-8226 = test system: RPMI-8226
RXF 393 = test system: RXF 393
SK-MEL-5 = test system: SK-MEL-5
U-251 = test system: U-251
UACC-62 = test system: UACC-62
OVCAR-3 = test system: OVCAR-3
NCI-H522 = test system: NCI-H522

SMILES | GI50 (A498) | GI50 (CAKI-1) | GI50 (DU-145) | GI50 (EKVX) | GI50 (HCT-15) | GI50 (HOP-92) | GI50 (Hs-578T) | GI50 (KM12) | GI50 (LOX IMVI) | GI50 (M14) | GI50 (NCI-H23) | GI50 (NCI-H460) | GI50 (OVCAR-8) | GI50 (RPMI-8226) | GI50 (RXF 393) | GI50 (SK-MEL-5) | GI50 (U-251) | GI50 (UACC-62) | GI50 (OVCAR-3) | GI50 (NCI-H522)
CCOC(=O)C(C)c1nc2cc3cccnc3c(Cl)c2[nH]c1=O (stereo not drawn) | > 100 µM (inactive) | > 100 µM (inactive) | 20 µM (inactive) | > 100 µM (inactive) | > 100 µM | > 100 µM (inactive) | 54.1 µM (inactive) | > 100 µM (inactive) | > 100 µM (inactive) | > 100 µM (inactive) | > 100 µM (inactive) | 32.4 µM (inactive) | > 100 µM (inactive) | 25.9 µM (inactive) | > 100 µM (inactive) | > 100 µM (inactive) | > 100 µM (inactive) | > 100 µM (inactive) | – | –
O=C(N/N=C1/C(=O)c2c3ccccc3cc3cccc1c23)c1cccc(Cl)c1 | > 100 µM (inactive) | > 100 µM (inactive) | 70.3 µM (inactive) | – | > 100 µM | > 100 µM (inactive) | 16 µM (inactive) | > 100 µM (inactive) | > 100 µM (inactive) | > 100 µM (inactive) | > 100 µM (inactive) | 79.4 µM (inactive) | > 100 µM (inactive) | > 100 µM (inactive) | > 100 µM (inactive) | > 100 µM (inactive) | 94.8 µM (inactive) | 69.7 µM (inactive) | > 100 µM (inactive) | –
CCN1CN(c2ccccc2)C2(CCN(CC3COc4ccccc4O3)CC2)C1=O (stereo not drawn) | 22.6 µM (inactive) | 43 µM (inactive) | 36.6 µM (inactive) | – | 20.5 µM | – | 20.7 µM (inactive) | 17.5 µM (inactive) | 17.9 µM (inactive) | 2.21 µM (inactive) | 40.6 µM (inactive) | 18.2 µM (inactive) | 34.7 µM (inactive) | 17.4 µM (inactive) | 15.5 µM (inactive) | 18.2 µM (inactive) | 30.6 µM (inactive) | 23.3 µM (inactive) | 31.2 µM (inactive) | 18 µM (inactive)
CCCC(=O)OC1CC(n2cc(F)c(=O)[nH]c2=O)OC1COP(=O)(OCC(Cl)(Cl)Cl)OCC(Cl)(Cl)Cl (stereo not drawn) | – | 0.283 µM (active) | 0.938 µM (active) | 43.8 µM (inactive) | 22.1 µM | 4.99 µM (inactive) | 13.9 µM (inactive) | 19.1 µM (inactive) | 16.1 µM (inactive) | 2.06 µM (inactive) | 11 µM (inactive) | 0.0351 µM (active) | 0.925 µM (active) | 1.47 µM (inactive) | – | 2.44 µM (inactive) | 4.02 µM (inactive) | 2.06 µM (inactive) | 4.24 µM (inactive) | 5.51 µM (inactive)
COC(=O)N1CC2(CO)C3CC=C(C(=O)Nc4ccccc4Br)C2C1C3Br (stereo not drawn) | > 50 µM (inactive) | > 50 µM (inactive) | > 50 µM (inactive) | > 50 µM (inactive) | > 50 µM | > 50 µM (inactive) | > 50 µM (inactive) | > 50 µM (inactive) | > 50 µM (inactive) | > 50 µM (inactive) | > 50 µM (inactive) | > 50 µM (inactive) | > 50 µM (inactive) | > 50 µM (inactive) | > 50 µM (inactive) | > 50 µM (inactive) | > 50 µM (inactive) | > 50 µM (inactive) | > 50 µM (inactive) | –
O=Cc1ccc2c(c1)CC1(Cc3ccccc3C1)C2 | 30.3 µM (inactive) | – | – | 15.3 µM (inactive) | 11.5 µM | 16.4 µM (inactive) | 3.72 µM (inactive) | 55.8 µM (inactive) | 18.4 µM (inactive) | 13.1 µM (inactive) | 23.3 µM (inactive) | – | 19.3 µM (inactive) | 24.8 µM (inactive) | > 100 µM (inactive) | 16 µM (inactive) | 17.8 µM (inactive) | 2.38 µM (inactive) | 14.3 µM (inactive) | 48.4 µM (inactive)
Cc1c(C)c(S(=O)(=O)N(CCCN)OCCCN)c(C)c2c1OC(C)(C)C2 | 18.8 µM (inactive) | 34.4 µM (inactive) | 30.6 µM (inactive) | 16.3 µM (inactive) | 68.7 µM | – | 18.8 µM (inactive) | 17.6 µM (inactive) | 19.6 µM (inactive) | 18.1 µM (inactive) | 29.8 µM (inactive) | 36.8 µM (inactive) | 80.5 µM (inactive) | 42.3 µM (inactive) | 15.2 µM (inactive) | 30.8 µM (inactive) | 17.3 µM (inactive) | 51.4 µM (inactive) | 21.4 µM (inactive) | 15.5 µM (inactive)
O=C(CSCC(=O)N/N=C/c1ccc(F)cc1)N/N=C/c1ccc(F)cc1 | 38.2 µM (inactive) | – | > 100 µM (inactive) | > 100 µM (inactive) | > 100 µM | > 100 µM (inactive) | > 100 µM (inactive) | > 100 µM (inactive) | – | 76.6 µM (inactive) | > 100 µM (inactive) | > 100 µM (inactive) | > 100 µM (inactive) | 60.8 µM (inactive) | 85.1 µM (inactive) | > 100 µM (inactive) | > 100 µM (inactive) | > 100 µM (inactive) | – | 65.9 µM (inactive)
C[N+](C)(C)c1ncnc2c1ncn2C1CCCO1 (stereo not drawn) | > 100 µM (inactive) | – | > 100 µM (inactive) | > 100 µM (inactive) | > 100 µM | > 100 µM (inactive) | > 100 µM (inactive) | > 100 µM (inactive) | – | > 100 µM (inactive) | > 100 µM (inactive) | > 100 µM (inactive) | > 100 µM (inactive) | > 100 µM (inactive) | > 100 µM (inactive) | > 100 µM (inactive) | > 100 µM (inactive) | > 100 µM (inactive) | > 100 µM (inactive) | > 100 µM (inactive)
C=CCN(c1cc(OC)c(NC(C)=O)cc1[N+](=O)[O-])S(C)(=O)=O | > 100 µM (inactive) | > 100 µM (inactive) | > 100 µM (inactive) | > 100 µM (inactive) | > 100 µM | – | > 100 µM (inactive) | > 100 µM (inactive) | > 100 µM (inactive) | > 100 µM (inactive) | > 100 µM (inactive) | > 100 µM (inactive) | > 100 µM (inactive) | > 100 µM (inactive) | > 100 µM (inactive) | > 100 µM (inactive) | > 100 µM (inactive) | > 100 µM (inactive) | > 100 µM (inactive) | 0.0349 µM (active)
CC(=O)N1C(Nc2nccs2)CCN1c1ccccc1 (stereo not drawn) | – | > 10 µM (inactive) | > 10 µM (inactive) | > 10 µM (inactive) | > 10 µM | > 10 µM (inactive) | > 10 µM (inactive) | – | > 10 µM (inactive) | > 10 µM (inactive) | > 10 µM (inactive) | > 10 µM (inactive) | > 10 µM (inactive) | > 10 µM (inactive) | > 10 µM (inactive) | > 10 µM (inactive) | – | – | > 10 µM (inactive) | –
CC(Nc1ncc2c(n1)-c1ccccc1OC2)C(=O)O (stereo not drawn) | – | 30.8 µM (inactive) | 30.3 µM (inactive) | 44.1 µM (inactive) | 85.9 µM | 35.9 µM (inactive) | 82.4 µM (inactive) | > 100 µM (inactive) | > 100 µM (inactive) | > 100 µM (inactive) | 86.5 µM (inactive) | > 100 µM (inactive) | > 100 µM (inactive) | 34.2 µM (inactive) | > 100 µM (inactive) | > 100 µM (inactive) | > 100 µM (inactive) | > 100 µM (inactive) | 27.9 µM (inactive) | –
CC(=O)C(C(=O)c1ccc(C)cc1)[C@H]1OC(C)(C)O[C@H]1[C@H]1COC(C)(C)O1 (stereo partly drawn) | 7.55 µM (inactive) | 5.38 µM (inactive) | – | 5.32 µM (inactive) | 2.99 µM | 7.98 µM (inactive) | 3.08 µM (inactive) | 8.75 µM (inactive) | 2.06 µM (inactive) | 6.9 µM (inactive) | 2.07 µM (inactive) | 7.05 µM (inactive) | 1.9 µM (inactive) | 1.6 µM (inactive) | 2.69 µM (inactive) | 5.08 µM (inactive) | 1.91 µM (inactive) | 6.1 µM (inactive) | – | 2.34 µM (inactive)
CN(C)c1ncc(-c2c[nH]c3ccccc23)nc1-c1c[nH]c2ccccc12 | 2.14 µM (inactive) | 3.47 µM (inactive) | 7.28 µM (inactive) | 3.32 µM (inactive) | 3.14 µM | 3.2 µM (inactive) | 2.78 µM (inactive) | 2.19 µM (inactive) | 2.51 µM (inactive) | 1.89 µM (inactive) | – | 2.12 µM (inactive) | 6.93 µM (inactive) | 2.74 µM (inactive) | 1.96 µM (inactive) | 3.72 µM (inactive) | 3.37 µM (inactive) | 1.99 µM (inactive) | 5.75 µM (inactive) | –
COC(=O)n1c(=O)n(-c2ccccc2)c(=O)n1C(=O)OC | > 100 µM (inactive) | > 100 µM (inactive) | > 100 µM (inactive) | > 100 µM (inactive) | > 100 µM | – | > 100 µM (inactive) | > 100 µM (inactive) | > 100 µM (inactive) | > 100 µM (inactive) | > 100 µM (inactive) | > 100 µM (inactive) | > 100 µM (inactive) | > 100 µM (inactive) | > 100 µM (inactive) | > 100 µM (inactive) | > 100 µM (inactive) | > 100 µM (inactive) | > 100 µM (inactive) | > 100 µM (inactive)
Cc1cc(C)c2nccc(NCCCN(C)C)c2c1[N+](=O)[O-] | 59 µM (inactive) | 32.2 µM (inactive) | 44.2 µM (inactive) | 64 µM (inactive) | 15 µM | – | 34 µM (inactive) | 31.4 µM (inactive) | 18.6 µM (inactive) | 19.1 µM (inactive) | 19.2 µM (inactive) | 26.8 µM (inactive) | 37.6 µM (inactive) | 34.6 µM (inactive) | 19.5 µM (inactive) | 13.5 µM (inactive) | 52.5 µM (inactive) | 34.1 µM (inactive) | 35.5 µM (inactive) | 14.4 µM (inactive)

Reference: ChEMBL document CHEMBL1201862, “PubChem BioAssay data set” (2004)
